Publication PMC11061419, “Identification of novel small molecule inhibitors of twin arginine translocation (Tat) pathway and their effect on the control of Campylobacter jejuni in chickens” (Frontiers in Microbiology, 2024)

Assays:
C. jejuni Au-45 = test: Copper sulfate sensitivity dose–response assay in vitro (MIC/MBC); type: cell-based; conditions: Campylobacter jejuni; for MIC: AU45, read-out: MIC, Au-45 (Table S4); for MBC: AU45, 0.5 mM CuSO4, read-out: MBC, Au-45 (Table S5)
Method: (§1) Campylobacter jejuni 81–176 was the primary model strain used for the selection of the potential Tat-dependent inhibitors by high-throughput screening. C. jejuni 81–176 is resistant to 0.5 and 1 mM CuSO4 (Supplementary Figure S1). C. jejuni 81–176 tatC knockout mutant (C. jejuni ΔtatC) was used to confirm the Tat-dependent inhibitory effect of the selected SM. C. jejuni ΔtatC is susceptible to 0.5 mM and higher of CuSO4 ([Rajashekara et al., 2009]). The specificity of the Tat-dependent inhibitors was also tested on 11 additional Campylobacter strains (C. coli ATCC33559 and 10 other C. jejuni strains isolated from chickens) and 7 commensal/beneficial bacteria (Supplementary Table S1). The […] (Au-13, Au-20, Au-38, Au-39, Au-47, Au-50, Au-24, Au-32, Au-44, and Au-45) were selected based on their single nucleotide polymorphism (SNP)-type and percent of prevalence in chickens ([Merchant-Patel et al., 2008]; [Kumar et al., 2016]). Additional details about the bacterial strains are shown in Supplementary Table S1.
(§2) In total, 19 SMs were two-fold serially diluted to obtain a final SM concentration ranging from 6.25 to 0.012 μg/mL. C. jejuni 81–176 was then treated with a determined concentration of SM, as described in the copper sensitivity assay. […] The lowest bactericidal SM concentration was considered the MBC (no increase in OD600 over time and no viable cells were recovered on agar plate after challenge) (N = 3 replicates per SM). […] However, these SMs were two-fold serially diluted to obtain a final SM concentration ranging from 5 μg to 0.0625 μg for testing (N = two independent experiments with four technical replicate for each SM).

C. jejuni Au-50 = test: as above; type: cell-based; conditions: Campylobacter jejuni; for MIC: AU50, read-out: MIC, Au-50 (Table S4); for MBC: AU50, 0.5 mM CuSO4, read-out: MBC, Au-50 (Table S5)
Method: as §1, §2

C. jejuni Au-13 = test: as above; type: cell-based; conditions: Campylobacter jejuni; for MIC: AU13, read-out: MIC, Au-13 (Table S4); for MBC: AU13, 0.5 mM CuSO4, read-out: MBC, Au-13 (Table S5)
Method: as §1, §2

C. jejuni Au-44 = test: as above; type: cell-based; conditions: Campylobacter jejuni; for MIC: AU44, read-out: MIC, Au-44 (Table S4); for MBC: AU44, 0.5 mM CuSO4, read-out: MBC, Au-44 (Table S5)
Method: as §1, §2

C. jejuni Au-39 = test: as above; type: cell-based; conditions: Campylobacter jejuni; for MIC: AU39, read-out: MIC, Au-39 (Table S4); for MBC: AU39, 0.5 mM CuSO4, read-out: MBC, Au-39 (Table S5)
Method: as §1, §2

C. jejuni Au-47 = test: as above; type: cell-based; conditions: Campylobacter jejuni; for MIC: AU47, read-out: MIC, Au-47 (Table S4); for MBC: AU47, 0.5 mM CuSO4, read-out: MBC, Au-47 (Table S5)
Method: as §1, §2

C. jejuni Au-38 = test: as above; type: cell-based; conditions: Campylobacter jejuni; for MIC: AU38, read-out: MIC, Au-38 (Table S4); for MBC: AU38, 0.5 mM CuSO4, read-out: MBC, Au-38 (Table S5)
Method: as §1, §2

C. coli ATCC33559 = test: as above; type: cell-based; conditions: Campylobacter coli; for MIC: ATCC33559, read-out: MIC, C. coli (Table S4); for MBC: ATCC33559, 0.5 mM CuSO4, read-out: MBC, C. coli (Table S5)
Method: as §1, §2

C. jejuni Au-20 = test: as above; type: cell-based; conditions: Campylobacter jejuni; for MIC: AU20, read-out: MIC, Au-20 (Table S4); for MBC: AU20, 0.5 mM CuSO4, read-out: MBC, Au-20 (Table S5)
Method: as §1, §2

C. jejuni Au-24 = test: as above; type: cell-based; conditions: Campylobacter jejuni; for MIC: AU24, read-out: MIC, Au-24 (Table S4); for MBC: AU24, 0.5 mM CuSO4, read-out: MBC, Au-24 (Table S5)
Method: as §1, §2

C. jejuni Au-32 = test: as above; type: cell-based; conditions: Campylobacter jejuni; for MIC: AU32, read-out: MIC, Au-32 (Table S4); for MBC: AU32, 0.5 mM CuSO4, read-out: MBC, Au-32 (Table S5)
Method: as §1, §2

[1] = test system: Campylobacter spp. (12 strains); test: Activity spectrum against Campylobacter strains at 6.25 μg/mL with 0.5 mM CuSO4; type: cell-based, Campylobacter jejuni, Campylobacter coli; conditions: 6.25 μg/mL SM
C. jejuni 81–176 = test: Copper sulfate sensitivity dose–response assay in vitro (MIC/MBC); type: cell-based, Campylobacter jejuni; conditions: for MBC / MIC: Campylobacter jejuni, 0.5 mM CuSO4, head displaced; for MBC: read-out: MBC, C. jejuni (Table S5); for MIC: read-out: MIC, C. jejuni (Table S4); for C. jejuni 81–176 in vitro MBC: minimal bactericidal concentration in presence of 0.5 mM CuSO4; for C. jejuni 81–176 in vitro MIC: minimal bacteriostatic concentration in presence of 0.5 mM CuSO4
Method: as §2

[2] = test system: Commensal/beneficial gut bacteria (n = 7); test: Activity spectrum against commensal/beneficial gut bacteria at 6.25 μg/mL; type: cell-based; conditions: 6.25 μg/mL SM; for Commensal/beneficial gut bacteria inhibited at 6.25 μg/mL (species): Ef Enterococcus faecalis, Lb Levilactobacillus brevis, LGG Lacticaseibacillus rhamnosus GG
Method: A similar experiment was performed with seven commensal/beneficial gut bacteria to determine species specificity of these SMs. In brief, an overnight suspension was normalized at 0.05 OD600 using the appropriate medium and challenged with 6.25 μg/mL of SM. Details about the strains and their growing conditions are shown in Supplementary Table S1. Medium alone and 1% DMSO were used as controls (N = 3 replicates per SM).

[3] = test system: intracellular C. jejuni 81–176 in Caco-2 cells; test: Copper sulfate sensitivity dose–response assay in infected Caco-2 colon epithelial cells; type: cell-based, Campylobacter jejuni; conditions: infected Caco-2 cells, 24 h, 0.5 mM CuSO4
Method: The intracellular reduction in C. jejuni in the presence of a given SM (T1-T8) and 0.5 mM CuSO4 were evaluated using Caco-2 cells, as previously described ([Kumar et al., 2016]; [Deblais et al., 2019]). In brief, cells were infected for 2 h using a multiplicity of infection (MOI) of 100. Infected cells were treated with SM at a final concentration ranging between 5 and 0.315 μg/mL and incubated at 37°C for 24 h in a humidified 5% CO2 incubator. Following incubation, cells were washed once with 1X PBS, lysed with 0.1% Triton-100X, serially 10-fold diluted in 1X PBS, and plated on MH agar plate. Plates were incubated in microaerophilic conditions at 42°C for 24 h, to determine the intracellular survival. Cells not infected and not treated and cells infected and treated with 1% DMSO were used as controls (N = two independent experiments with four technical replicate for each SM).

FDH = conditions: 1 mM of azide; ref Davies, 2017; cited from earlier work

CN(C)c1ccc(C(=O)Nc2ccc(CN3CCS(=O)(=O)CC3)cc2)cc1 [T3]
6.25 µg/mL: MIC (C. jejuni Au-45) | MIC (C. jejuni Au-50) | MIC (C. jejuni Au-13) | MIC (C. jejuni Au-44) | MIC (C. jejuni Au-39) | MIC (C. jejuni Au-47) | MIC (C. jejuni Au-38) | MIC (C. jejuni Au-20) | MIC (C. jejuni Au-24) | MIC (C. jejuni Au-32)
1 µg/mL: MIC (C. coli ATCC33559)
12/12: Growth inhibition at 6.25 μg/mL, Campylobacter spp. (strains inhibited/tested) [1]
2/7: Growth inhibition at 6.25 μg/mL, Commensal/beneficial gut bacteria (strains inhibited/tested) [2]
5 µg/mL: C. jejuni 81–176 MBC in Caco2 cells [3]
0.04 µg/mL: MIC (C. jejuni 81–176) | C. jejuni 81–176 in vitro MIC (C. jejuni 81–176)
LGG and Ef: Commensal/beneficial gut bacteria inhibited at 6.25 μg/mL (species) [2]
>5 µg/mL: C. jejuni 81–176 in vitro MBC (C. jejuni 81–176)
> 5 µg/mL: MBC (C. jejuni Au-45) | MBC (C. jejuni Au-50) | MBC (C. jejuni Au-13) | MBC (C. jejuni Au-44) | MBC (C. jejuni Au-39) | MBC (C. jejuni Au-47) | MBC (C. jejuni Au-38) | MBC (C. coli ATCC33559) | MBC (C. jejuni Au-20) | MBC (C. jejuni Au-24) | MBC (C. jejuni Au-32) | MBC (C. jejuni 81–176)

CCc1ccnc(NS(=O)(=O)c2ccc(C)c(Cl)c2)c1 [T4]
12/12: Growth inhibition at 6.25 μg/mL, Campylobacter spp. (strains inhibited/tested) [1]
Ef: Commensal/beneficial gut bacteria inhibited at 6.25 μg/mL (species) [2]
0.01 µg/mL: MIC (C. jejuni 81–176) | C. jejuni 81–176 in vitro MIC (C. jejuni 81–176)
1/7: Growth inhibition at 6.25 μg/mL, Commensal/beneficial gut bacteria (strains inhibited/tested) [2]
> 5 µg/mL: MBC (C. jejuni Au-45) | MBC (C. jejuni Au-50) | MBC (C. jejuni Au-13) | MBC (C. jejuni Au-44) | MBC (C. jejuni Au-39) | MBC (C. jejuni Au-47) | MBC (C. jejuni Au-38) | MBC (C. coli ATCC33559) | MBC (C. jejuni Au-20) | MBC (C. jejuni Au-24) | MBC (C. jejuni Au-32) | MBC (C. jejuni 81–176)
>5 µg/mL: C. jejuni 81–176 in vitro MBC (C. jejuni 81–176)
0.62 µg/mL: MIC (C. jejuni Au-13) | MIC (C. jejuni Au-47) | MIC (C. jejuni Au-20)
6.25 µg/mL: MIC (C. jejuni Au-45) | MIC (C. jejuni Au-44) | MIC (C. jejuni Au-39) | MIC (C. jejuni Au-38) | MIC (C. coli ATCC33559) | MIC (C. jejuni Au-24) | MIC (C. jejuni Au-32)
0.31 µg/mL: MIC (C. jejuni Au-50)

CC(C)n1c(S)nc2c1c(=O)[nH]c(=O)n2C [T6]
2.5 µg/mL: MBC (C. jejuni Au-45) | MBC (C. jejuni Au-50) | MBC (C. jejuni Au-13) | MBC (C. jejuni Au-44) | MBC (C. jejuni Au-39) | MBC (C. jejuni Au-47) | MBC (C. jejuni Au-38) | MBC (C. coli ATCC33559) | MBC (C. jejuni Au-20) | MBC (C. jejuni Au-24) | MBC (C. jejuni Au-32) | MBC (C. jejuni 81–176) | C. jejuni 81–176 in vitro MBC (C. jejuni 81–176)
0/7: Growth inhibition at 6.25 μg/mL, Commensal/beneficial gut bacteria (strains inhibited/tested) [2]
1.25 µg/mL: MIC (C. jejuni Au-45) | MIC (C. jejuni Au-50) | MIC (C. jejuni Au-13) | MIC (C. jejuni Au-44) | MIC (C. jejuni Au-39) | MIC (C. jejuni Au-47) | MIC (C. jejuni Au-38) | MIC (C. coli ATCC33559) | MIC (C. jejuni Au-20) | MIC (C. jejuni Au-24) | MIC (C. jejuni Au-32) | MIC (C. jejuni 81–176) | C. jejuni 81–176 in vitro MIC (C. jejuni 81–176)
12/12: Growth inhibition at 6.25 μg/mL, Campylobacter spp. (strains inhibited/tested) [1]

[N-]=[N+]=[N-] [azide]
30%: inhibition of FDH activity (FDH)

CCOC(=O)C1CCN(CC(=O)Nc2cccc3cccnc23)CC1 [T5]
0.02 µg/mL: MIC (C. coli ATCC33559)
0.62 µg/mL: MIC (C. jejuni Au-13)
1.24 µg/mL: MBC (C. jejuni Au-13)
0.01 µg/mL: MIC (C. jejuni 81–176) | C. jejuni 81–176 in vitro MIC (C. jejuni 81–176)
5 µg/mL: MIC (C. jejuni Au-45) | MIC (C. jejuni Au-50) | MBC (C. jejuni Au-44) | MIC (C. jejuni Au-39) | MBC (C. jejuni Au-47) | MBC (C. jejuni Au-38) | MBC (C. jejuni Au-20) | MBC (C. jejuni Au-24) | MIC (C. jejuni Au-32)
> 5 µg/mL: MBC (C. jejuni Au-45) | MBC (C. jejuni Au-50) | MBC (C. jejuni Au-39) | MBC (C. jejuni Au-32)
2.5 µg/mL: MIC (C. jejuni Au-44) | MIC (C. jejuni Au-47) | MIC (C. jejuni Au-38) | MIC (C. jejuni Au-20) | MIC (C. jejuni Au-24)
0.04 µg/mL: MBC (C. coli ATCC33559) | MBC (C. jejuni 81–176) | C. jejuni 81–176 in vitro MBC (C. jejuni 81–176)
12/12: Growth inhibition at 6.25 μg/mL, Campylobacter spp. (strains inhibited/tested) [1]
1/7: Growth inhibition at 6.25 μg/mL, Commensal/beneficial gut bacteria (strains inhibited/tested) [2]
Ef: Commensal/beneficial gut bacteria inhibited at 6.25 μg/mL (species) [2]
